Source: ChEMBL document CHEMBL1151449, “In vitro activity of DC-159a, a new broad-spectrum fluoroquinolone, compared with that of other agents against drug-susceptible and -resistant pneumococci” (2008)
Values after ≈ are worked out from the molar mass of the structure shown.

Legend:
Streptococcus pneumoniae [1] = assay: Antibacterial activity against penicillin-resistant and quinolone-susceptible Streptococcus pneumoniae HMC 228 expressing ermB after 38 passages by broth microdilution method; assay type: functional
Streptococcus pneumoniae [2] = assay: (§1) Antibacterial activity against macrolide-, quinolone-susceptible and penicillin-intermediate Streptococcus pneumoniae HMC 100 harboring S79Y mutation in quinolone-resistant determining regions of ParC gene after 34 passages with gemifloxacin measured after 10 daily antibiotic-free subculturing by multi-step resistance selection technique; assay type: functional
Streptococcus sp. [3] = assay: Antibacterial activity against levofloxacin-intermediate -resistant Streptococcus sp. by agar dilution method; assay type: functional
Streptococcus pneumoniae [4] = assay: as §1, with “99” for “100”, “harboring S81Y and” for “harboring”, “of GyrA and” for “of”, “genes respectively” for “gene”, “41” for “34”, “moxifloxacin” for “gemifloxacin”; assay type: functional
Streptococcus pneumoniae [5] = assay: Antibacterial activity against penicillin-, macrolide- and quinolone-susceptible Streptococcus pneumoniae HMC 63 after 50 passages by broth microdilution method; assay type: functional
Streptococcus sp. [6] = assay: Antibacterial activity against Streptococcus sp. by agar dilution method; assay type: functional
Streptococcus pneumoniae [7] = assay: Antibacterial activity against penicillin-resistant and quinolone-susceptible Streptococcus pneumoniae HMC 228 expressing ermB after 50 passages by broth microdilution method; assay type: functional
Streptococcus pneumoniae [8] = assay: Antibacterial activity against penicillin-resistant and quinolone-susceptible Streptococcus pneumoniae HMC 3583 expressing mefA after 49 passages by broth microdilution method; assay type: functional
Streptococcus pneumoniae [9] = assay: Antibacterial activity against penicillin-resistant and quinolone-susceptible Streptococcus pneumoniae HMC 3583 expressing mefA after 50 passages by broth microdilution method; assay type: functional
Streptococcus pneumoniae [10] = assay: Antibacterial activity against macrolide-, quinolone-susceptible and penicillin-intermediate Streptococcus pneumoniae HMC 100 after 50 passages by broth microdilution method; assay type: functional
Streptococcus pneumoniae [11] = assay: Antibacterial activity against Streptococcus pneumoniae HMC 1060 harboring S81F mutation in quinolone-resistant determining regions of GyrA gene, S79F, K137N mutation in QRDR of ParC gene and I460V mutation in QRDR of ParE gene by agar dilution method; assay type: functional
Streptococcus pneumoniae [12] = assay: Antibacterial activity against penicillin-resistant and quinolone-susceptible Streptococcus pneumoniae HMC 228 expressing ermB after 28 passages by broth microdilution method; assay type: functional
Streptococcus pneumoniae [13] = assay: Antibacterial activity against penicillin-resistant and quinolone-susceptible Streptococcus pneumoniae HMC 3583 expressing mefA after 46 passages by broth microdilution method; assay type: functional
Streptococcus pneumoniae [14] = assay: Antibacterial activity against penicillin-, macrolide-susceptible and quinolone-resistant Streptococcus pneumoniae HMC 1074 harboring S81F mutation in quinolone-resistant determining regions of GyrA gene, S79F mutation in QRDR of ParC gene and I460V mutation in QRDR of ParE gene after 27 passages by broth microdilution method; assay type: functional
Streptococcus pneumoniae [15] = assay: Antibacterial activity against penicillin-, macrolide- and quinolone-susceptible Streptococcus pneumoniae HMC 63 after 34 passages by broth microdilution method; assay type: functional
Streptococcus pneumoniae [16] = assay: Antibacterial activity against penicillin-resistant and quinolone-susceptible Streptococcus pneumoniae HMC 3583 expressing mefA after 41 passages by broth microdilution method; assay type: functional
Streptococcus pneumoniae [17] = assay: Antibacterial activity against macrolide-, quinolone-susceptible and penicillin-intermediate Streptococcus pneumoniae HMC 100 after 42 passages by broth microdilution method; assay type: functional
Streptococcus pneumoniae [18] = assay: Antibacterial activity against macrolide-, quinolone-susceptible and penicillin-intermediate Streptococcus pneumoniae HMC 100 after 22 passages by broth microdilution method; assay type: functional
Streptococcus pneumoniae [19] = assay: Antibacterial activity against penicillin-resistant and quinolone-susceptible Streptococcus pneumoniae HMC 228 expressing ermB after 36 passages by broth microdilution method; assay type: functional
Streptococcus pneumoniae [20] = assay: Antibacterial activity against macrolide-, quinolone-susceptible and penicillin-intermediate Streptococcus pneumoniae HMC 99 after 41 passages by broth microdilution method

Row | SMILES | MIC (Streptococcus pneumoniae [1]) [µg/mL] | MIC (Streptococcus pneumoniae [2]) [µg/mL] | MIC90 (Streptococcus sp. [3]) [µg/mL] | MIC (Streptococcus pneumoniae [4]) [µg/mL] | MIC (Streptococcus pneumoniae [5]) [µg/mL] | MIC90 (Streptococcus sp. [6]) [µg/mL] | MIC (Streptococcus pneumoniae [7]) [µg/mL] | MIC (Streptococcus pneumoniae [8]) [µg/mL] | MIC (Streptococcus pneumoniae [9]) [µg/mL] | MIC (Streptococcus pneumoniae [10]) [µg/mL] | MIC (Streptococcus pneumoniae [11]) [µg/mL] | MIC (Streptococcus pneumoniae [12]) [µg/mL] | MIC (Streptococcus pneumoniae [13]) [µg/mL] | MIC (Streptococcus pneumoniae [14]) [µg/mL] | MIC (Streptococcus pneumoniae [15]) [µg/mL] | MIC (Streptococcus pneumoniae [16]) [µg/mL] | MIC (Streptococcus pneumoniae [17]) [µg/mL] | MIC (Streptococcus pneumoniae [18]) [µg/mL] | MIC (Streptococcus pneumoniae [19]) [µg/mL] | MIC (Streptococcus pneumoniae [20]) [µg/mL]
1 | COc1c(N2CC3(CC3)[C@](C)(N)C2)c(F)cc2c(=O)c(C(=O)O)cn([C@@H]3C[C@@H]3F)c12.O | 1 | 0.5 | 1 | 1 | 0.125 | 0.125 | 1 | 1 | 1 | 0.5 | 0.5 |  |  |  |  |  |  |  |  | 
2 | COc1c(N2CCNC(C)C2)c(F)cc2c(=O)c(C(=O)O)cn(C3CC3)c12 (centres undefined) [GATIFLOXACIN] |  | 4 (≈ 10.7 µM) |  | 16 (≈ 42.6 µM) | 1 (≈ 2.66 µM) |  |  |  |  | 0.5 (≈ 1.33 µM) | 4 (≈ 10.7 µM) | 4 (≈ 10.7 µM) | 4 (≈ 10.7 µM) |  |  |  |  |  |  | 
3 | CO/N=C1\CN(c2nc3c(cc2F)c(=O)c(C(=O)O)cn3C2CC2)CC1CN (centres undefined) [GEMIFLOXACIN] |  | 1 (≈ 2.57 µM) |  | 1 (≈ 2.57 µM) |  |  | 0.25 (≈ 0.642 µM) |  |  |  | 0.25 (≈ 0.642 µM) |  |  | 4 (≈ 10.3 µM) | 0.5 (≈ 1.28 µM) | 0.25 (≈ 0.642 µM) | 1 (≈ 2.57 µM) |  |  | 
4 | COc1c(N2C[C@@H]3CCCN[C@@H]3C2)c(F)cc2c(=O)c(C(=O)O)cn(C3CC3)c12 [MOXIFLOXACIN] |  | 2 (≈ 4.98 µM) |  | 4 (≈ 9.96 µM) | 0.25 (≈ 0.623 µM) |  |  |  | 0.5 (≈ 1.25 µM) |  | 2 (≈ 4.98 µM) |  |  |  |  |  |  | 2 (≈ 4.98 µM) | 2 (≈ 4.98 µM) | 4 (≈ 9.96 µM)
